Numbered stars: 1 amine (or outer) side, 2 acyl side, 3 side chain; on linkers, the order of the positions; unused ones are H or OH. Bridge positions count the residues as written; N and C are the ends. Square brackets hold non-standard residues; d marks the D form. Side chains are listed from the residue outwards. Peptide text beside a SMILES is read from it. * marks the point of attachment. X1 = COc1ccc(CC[C@@H](N[*:1])c2cccc(OCC(=O)[*:2])c2)cc1OC; X3 = COc1ccc(CC[C@H](O[*:2])c2cccc(OCC(=O)[*:1])c2)cc1OC; X2 = CN(CCC=CC(=O)OCC(C)(C)C(=O)C(=O)[*:2])[*:1]; 2Nal = N[C@@H](Cc1ccc2ccccc2c1)C(=O)O; dNMeNle = CCCC[C@@H](NC)C(=O)O; Pip = O=C(O)[C@@H]1CCCCN1; dNMeS = CN[C@H](CO)C(=O)O; dPip = O=C(O)[C@H]1CCCCN1; Morpholide = C1CN(*)CCO1; CO = O=C([*:1])[*:2]; Sar = CNCC(=O)O; tBu = CC(C)(C)*
How the values were obtained:
Type in all cases: cell-based
[1] = Cell proliferation assay, single concentration, response relative to DMSO; cell line indicated in each table
Method: (§1) Cell Proliferation Assay (Prolif.) Guo et al. (2018) Nat. Chem. 11:254-63. Specific cell lines are indicated in each assay and cultured in complete growth media. Activity is scored according to the IC50 values relative to DMSO control. “Low” indicates an IC50 greater than 600 nM, “Medium” indicates an IC50 between 300 nM and 600 nM “High” indicates an IC50 less than 300 nM. “Rel.Uptake” refers to uptake activity characterization relative to a single concentration assay. “Low” indicates a response greater than 0.6 times the activity relative to DMSO, “Medium” indicates a response between 0.6 and 0.3 times the activity relative to DMSO, “High” indicates a response less than 0.3 times the activity relative to DMSO.

H929 = test: Cell proliferation assay (Prolif.), IC50 relative to DMSO control; settings: H929 cells; for Prolif, H929: IC50 class relative to DMSO control
Method: as §1

[2] = Nucleoside uptake assay, single concentration (Rel.Uptake), response relative to DMSO; cell line indicated in each table; settings: 293 T cells, nucleoside uptake at single concentration
Method: Nucleoside Uptake Assay (uptake). Nuceloside uptake assays were performed with using 3H-Thymidine as described in Guo et al. (2018) Nat. Chem, 11:254-63. Specific cell lines are indicated in each assay and cultured in complete growth media. Activity is scored according to the IC50 values relative to DMSO control. “Low” indicates an IC50 greater than 600 nM, “Medium” indicates an IC50 between 300 nM and 600 nM “High” indicates an IC50 less than 300 nM. “Rel.Uptake” refers to uptake activity characterization relative to a single concentration assay. “Low” indicates a response greater than 0.6 times the activity relative to DMSO, “Medium” indicates a response between 0.6 and 0.3 times the activity relative to DMSO, “High” indicates a response less than 0.3 times the activity relative to DMSO.

| Compound | Rel. Prolif., A549 ([1]; A549 cells) | Prolif, H929 (H929) | Rel. Uptake, 293 T [2] | Prolif. H929 (H929; class relative to DMSO control) | Rel. Prolif., NCI-H929 ([1]; NCI-H929 cells) |
| --- | --- | --- | --- | --- | --- |
| CCCC[C@@H]1C(=O)N[C@@H](Cc2ccc3ccccc3c2)C(=O)N(C)[C@H](COC(C)(C)C)C(=O)NCC(=O)N(C)CCC=CC(=O)OCC(C)(C)C(=O)C(=O)N2CCCC[C@@H]2C(=O)O[C@@H](CCc2ccc(OC)c(OC)c2)c2cccc(c2)OCC(=O)N(C)CC(=O)N1C [Compound 1] ([Sar][dNMeNle][2Nal][dNMeS](tBu)G[X2][dPip]; linker N-C via X3) | low | – | – | – | – |
| COc1ccc(CC[C@H]2OC(=O)[C@@H]3CCCCN3C(=O)C(=O)C(C)(C)COC(=O)C=CCCN(C)C(=O)[C@@H](Cc3ccccc3)NC(=O)CN(C)C(=O)[C@@H](Cc3ccccc3)NC(=O)[C@H](Cc3ccc(O)cc3)N(C)C(=O)COc3cccc2c3)c(OC)c1OC [Compound 1577] | – | medium | medium | – | – |
| COc1ccc(CC[C@H]2OC(=O)[C@@H]3CNCCN3C(=O)C(=O)C(C)(C)COC(=O)C=CCCN(C)C(=O)[C@@H](Cc3ccccc3)NC(=O)CN(C)C(=O)[C@@H](Cc3ccccc3)NC(=O)[C@H](Cc3ccc(O)cc3)N(C)C(=O)COc3cccc2c3)cc1OC [Compound 1573] | – | low | low | – | – |
| COc1ccc(CC[C@H]2NC(=O)[C@@H]3CCCCN3C(=O)C(=O)C(C)(C)COC(=O)C=CCCN(C)C(=O)[C@@H](Cc3ccccc3)NC(=O)CN(C)C(=O)[C@@H](Cc3ccccc3)NC(=O)[C@H](Cc3ccc(OC(=O)N4CCOCC4)cc3)NC(=O)COc3cccc2c3)cc1OC [Compound 877] (cyclo([Pip][X1]Y([CO-Morpholide])[dF][Sar][dF][X2])) | – | – | – | low | low |
| COc1ccc(CC[C@H]2OC(=O)[C@@H]3CCCCN3C(=O)C(=O)C(C)(C)COC(=O)C=CCCN(C)C(=O)[C@@H]3CCCN3C(=O)[C@H](COC(C)(C)C)N(C)C(=O)[C@H](c3ccccc3)NC(=O)[C@H](C)N(C)C(=O)COc3cc(F)cc2c3)cc1OC [Compound 1596] | – | – | Low (“Low” indicates a response greater than 0.6 times the activity relative to DMSO) | – | – |
| COc1ccc(OC)c(OC)c1CC[C@H]1OC(=O)[C@@H]2CCCCN2C(=O)C(=O)C(C)(C)COC(=O)C=CCCN(C)C(=O)[C@@H](Cc2ccccc2)NC(=O)CN(C)C(=O)[C@@H](Cc2ccccc2)NC(=O)[C@H](Cc2ccc(O)cc2)N(C)C(=O)COc2cccc1c2 [Compound 1583] | – | low | low | – | – |
| COc1ccc(CC[C@H]2OC(=O)[C@@H]3CCCCN3C(=O)C(=O)C(C)(C)COC(=O)C=CCCN(C)C(=O)[C@@H](Cc3ccccc3)NC(=O)CN(C)C(=O)[C@@H](Cc3ccccc3)NC(=O)[C@H](Cc3ccc(O)cc3)N(C)C(=O)COc3cc(F)cc2c3)cc1OC [Compound 1576] | – | medium | medium | – | – |
| COc1ccc(CC[C@H]2OC(=O)[C@@H]3CCCCN3C(=O)C(=O)C(C)(C)COC(=O)C=CCCN(C)C(=O)[C@@H](Cc3ccccc3)NC(=O)CN(C)C(=O)[C@@H](Cc3ccccc3)NC(=O)[C@H](Cc3ccc(O)cc3)N(C)C(=O)COc3cccc2c3)c(F)c1OC [Compound 1571] | – | low | low | – | – |
| COc1cc(CC[C@H]2OC(=O)[C@@H]3CCCCN3C(=O)C(=O)C(C)(C)COC(=O)C=CCCN(C)C(=O)[C@@H](Cc3ccccc3)NC(=O)CN(C)C(=O)[C@@H](Cc3ccccc3)NC(=O)[C@H](Cc3ccc(O)cc3)N(C)C(=O)COc3cccc2c3)cc(F)c1OC [Compound 1569] | – | low | low | – | – |
| COc1ccc(CC[C@H]2OC(=O)[C@@H]3CCCCN3C(=O)C(=O)C(C)(C)COC(=O)C=CCCN(C)C(=O)[C@@H]3CCCN3C(=O)[C@H](COC(C)(C)C)N(C)C(=O)[C@@H](c3ccccc3)NC(=O)[C@H](C)N(C)C(=O)COc3cc(F)cc2c3)cc1OC [Compound 1595] | – | – | Low (“Low” indicates a response greater than 0.6 times the activity relative to DMSO) | – | – |
| COc1ccc(CC[C@H]2OC(=O)[C@@H]3CN(C)CCN3C(=O)C(=O)C(C)(C)COC(=O)C=CCCN(C)C(=O)[C@@H](Cc3ccccc3)NC(=O)CN(C)C(=O)[C@@H](Cc3ccccc3)NC(=O)[C@H](Cc3ccc(O)cc3)N(C)C(=O)COc3cccc2c3)cc1OC [Compound 1574] | – | low | low | – | – |
| COc1ccc(CC[C@H]2OC(=O)[C@@H]3CCCCN3C(=O)C(=O)C(C)(C)COC(=O)C=CCCN(C)C(=O)[C@@H](Cc3ccccc3)NC(=O)CN(C)C(=O)[C@@H](Cc3ccccc3)NC(=O)[C@H](Cc3ccc(O)cc3)N(C)C(=O)COc3ccc(F)c2c3)cc1OC [Compound 1575] | – | low | low | – | – |
| COc1cc(CC[C@H]2OC(=O)[C@@H]3CCCCN3C(=O)C(=O)C(C)(C)COC(=O)C=CCCN(C)C(=O)[C@@H](Cc3ccccc3)NC(=O)CN(C)C(=O)[C@@H](Cc3ccccc3)NC(=O)[C@H](Cc3ccc(O)cc3)N(C)C(=O)COc3cccc2c3)cc(O)c1OC [Compound 1567] | – | medium | medium | – | – |
| COc1cc(CC[C@H]2OC(=O)[C@@H]3CCCCN3C(=O)C(=O)C(C)(C)COC(=O)C=CCCN(C)C(=O)[C@@H](Cc3ccccc3)NC(=O)CN(C)C(=O)[C@@H](Cc3ccccc3)NC(=O)[C@H](Cc3ccc(O)cc3)N(C)C(=O)COc3cccc2c3)c(OC)c(OC)c1 [Compound 1582] | – | low | low | – | – |
| COc1cc(F)c(CC[C@H]2OC(=O)[C@@H]3CCCCN3C(=O)C(=O)C(C)(C)COC(=O)C=CCCN(C)C(=O)[C@@H](Cc3ccccc3)NC(=O)CN(C)C(=O)[C@@H](Cc3ccccc3)NC(=O)[C@H](Cc3ccc(O)cc3)N(C)C(=O)COc3cccc2c3)cc1OC [Compound 1570] | – | medium | medium | – | – |
| COc1cc(O)c(CC[C@H]2OC(=O)[C@@H]3CCCCN3C(=O)C(=O)C(C)(C)COC(=O)C=CCCN(C)C(=O)[C@@H](Cc3ccccc3)NC(=O)CN(C)C(=O)[C@@H](Cc3ccccc3)NC(=O)[C@H](Cc3ccc(O)cc3)N(C)C(=O)COc3cccc2c3)cc1OC [Compound 1568] | – | low | low | – | – |
| COc1cc(OC)c(OC)cc1CC[C@H]1OC(=O)[C@@H]2CCCCN2C(=O)C(=O)C(C)(C)COC(=O)C=CCCN(C)C(=O)[C@@H](Cc2ccccc2)NC(=O)CN(C)C(=O)[C@@H](Cc2ccccc2)NC(=O)[C@H](Cc2ccc(O)cc2)N(C)C(=O)COc2cccc1c2 [Compound 1581] | – | medium | medium | – | – |
| COc1ccc(CC[C@H]2OC(=O)[C@@H]3CCCCN3C(=O)C(=O)C(C)(C)COC(=O)C=CCCN(C)C(=O)[C@@H](Cc3ccccc3)NC(=O)CN(C)C(=O)[C@@H](Cc3ccccc3)NC(=O)[C@H](Cc3ccc(O)cc3)N(C)C(=O)COc3cccc2c3)c(O)c1OC [Compound 1584] | – | low | low | – | – |
| COc1ccc(CC[C@H]2OC(=O)[C@@H]3CCCCN3C(=O)C(=O)C(C)(C)COC(=O)C=CCCN(C)C(=O)[C@@H](Cc3ccccc3)NC(=O)CN(C)C(=O)[C@@H](Cc3ccccc3)NC(=O)[C@H](Cc3ccc(O)cc3)N(C)C(=O)COc3cncc2c3)cc1OC [Compound 1580] | – | low | low | – | – |
| COc1ccc(CC[C@H]2OC(=O)[C@@H]3CCCCN3C(=O)C(=O)C(C)(C)COC(=O)C=CCCN(C)C(=O)[C@@H](Cc3ccccc3)NC(=O)CN(C)C(=O)[C@@H](Cc3ccccc3)NC(=O)[C@H](Cc3ccc(O)cc3)N(C)C(=O)COc3cc2ccc3F)cc1OC [Compound 1578] | – | low | low | – | – |
| COc1cc(CC[C@H]2OC(=O)[C@@H]3CCCCN3C(=O)C(=O)C(C)(C)COC(=O)C=CCCN(C)C(=O)[C@@H](Cc3ccccc3)NC(=O)CN(C)C(=O)[C@@H](Cc3ccccc3)NC(=O)[C@H](Cc3ccc(O)cc3)N(C)C(=O)COc3cccc2c3)cc(OC)c1OC [Compound 1566] | – | medium | medium | – | – |
| COc1ccc(CC[C@H]2OC(=O)[C@@H]3CCCCN3C(=O)C(=O)C(C)(C)COC(=O)C=CCCN(C)C(=O)[C@@H](Cc3ccccc3)NC(=O)CN(C)C(=O)[C@@H](Cc3ccccc3)NC(=O)[C@H](Cc3ccc(O)cc3)N(C)C(=O)COc3cccc2c3F)cc1OC [Compound 1579] | – | medium | medium | – | – |
| COc1ccc(CC[C@H]2OC(=O)[C@@H]3CN(C(=O)OCC4c5ccccc5-c5ccccc54)CCN3C(=O)C(=O)C(C)(C)COC(=O)C=CCCN(C)C(=O)[C@@H](Cc3ccccc3)NC(=O)CN(C)C(=O)[C@@H](Cc3ccccc3)NC(=O)[C@H](Cc3ccc(O)cc3)N(C)C(=O)COc3cccc2c3)cc1OC [Compound 1572] | – | low | low | – | – |
